Structures are written as SMILES.

The target of experiment [1] is T1, Serine/threonine-protein kinase DCLK1 (Homo sapiens) (UniProt O15075).
T1 sequence (whole entry): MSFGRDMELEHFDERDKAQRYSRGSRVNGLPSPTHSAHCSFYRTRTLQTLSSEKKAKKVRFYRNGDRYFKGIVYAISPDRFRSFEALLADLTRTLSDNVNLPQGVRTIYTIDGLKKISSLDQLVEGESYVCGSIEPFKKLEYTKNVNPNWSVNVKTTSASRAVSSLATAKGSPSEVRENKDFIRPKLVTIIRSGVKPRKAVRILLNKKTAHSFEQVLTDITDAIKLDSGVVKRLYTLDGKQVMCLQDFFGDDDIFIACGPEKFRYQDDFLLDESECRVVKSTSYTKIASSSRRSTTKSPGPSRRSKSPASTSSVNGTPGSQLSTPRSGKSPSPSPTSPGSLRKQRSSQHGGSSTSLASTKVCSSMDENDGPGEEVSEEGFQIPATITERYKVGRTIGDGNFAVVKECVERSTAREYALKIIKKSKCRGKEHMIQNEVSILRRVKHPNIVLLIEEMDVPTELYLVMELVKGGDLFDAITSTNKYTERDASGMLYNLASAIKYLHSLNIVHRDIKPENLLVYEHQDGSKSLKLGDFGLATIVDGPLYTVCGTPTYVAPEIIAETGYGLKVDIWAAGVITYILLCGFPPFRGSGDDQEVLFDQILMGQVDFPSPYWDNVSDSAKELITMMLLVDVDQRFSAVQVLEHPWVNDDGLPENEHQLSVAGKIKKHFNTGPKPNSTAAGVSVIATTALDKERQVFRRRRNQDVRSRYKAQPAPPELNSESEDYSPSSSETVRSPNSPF
The experiment in a line: Selectivity interaction (Ambit KINOMEscan and KiNATiv profiling in Jurkat cells) EUB0000090b DCLK1. The format is cell-based. To be noted: at 1 µM.

Experiment [2] has as its target Histamine H2 receptor (Homo sapiens) (UniProt P25021). The experiment in a line: Selectivity interaction (Panel of non-epigenetic targets (kinases, GPCRs, ion channels, and transporters, Eurofins) ) EUB0000271b HRH2. To be noted: at 1 µM.
Experiment [3] concerns the target T2, Mitogen-activated protein kinase 13 (Homo sapiens) (UniProt O15264).
T2 sequence (whole entry): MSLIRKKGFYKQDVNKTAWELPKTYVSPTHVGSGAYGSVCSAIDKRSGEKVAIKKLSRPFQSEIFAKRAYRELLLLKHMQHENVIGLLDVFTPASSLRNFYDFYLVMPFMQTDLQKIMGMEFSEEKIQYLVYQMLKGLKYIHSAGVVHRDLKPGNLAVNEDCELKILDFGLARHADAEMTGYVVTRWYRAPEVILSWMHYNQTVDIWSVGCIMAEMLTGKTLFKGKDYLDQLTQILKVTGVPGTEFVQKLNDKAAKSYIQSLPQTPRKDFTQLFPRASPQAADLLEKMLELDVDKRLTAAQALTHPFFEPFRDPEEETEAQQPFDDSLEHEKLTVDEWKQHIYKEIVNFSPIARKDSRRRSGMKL
To be noted: at 10 µM.

The target in experiment [4] is Casein kinase II subunit alpha' (Homo sapiens) (UniProt P19784). The experiment can be described thus: Selectivity interaction (Kinase panel (DSF assay)) EUB0001558a CSNK2A2. For orientation: In DSF a fluorescence change marks the thermal transition of the protein.
Casein kinase II subunit alpha' (Homo sapiens), sequence (P19784 whole entry, looked up): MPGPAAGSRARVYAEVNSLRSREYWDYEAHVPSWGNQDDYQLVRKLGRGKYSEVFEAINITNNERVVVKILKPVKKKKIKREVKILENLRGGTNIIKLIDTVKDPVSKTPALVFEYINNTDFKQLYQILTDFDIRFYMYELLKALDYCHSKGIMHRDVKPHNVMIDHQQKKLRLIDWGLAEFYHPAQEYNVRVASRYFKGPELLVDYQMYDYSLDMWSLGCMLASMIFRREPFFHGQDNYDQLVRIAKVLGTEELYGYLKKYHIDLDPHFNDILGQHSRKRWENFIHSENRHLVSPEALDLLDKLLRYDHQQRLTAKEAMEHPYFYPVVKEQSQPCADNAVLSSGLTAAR
For experiment [5], the target named is DNA-dependent protein kinase catalytic subunit (Homo sapiens) (UniProt P78527). The experiment in a line: Selectivity interaction (Kinase panel (Invitrogen)) EUB0000639a PRKDC. To be noted: at 200 nM.
DNA-dependent protein kinase catalytic subunit (Homo sapiens), sequence (P78527 whole entry): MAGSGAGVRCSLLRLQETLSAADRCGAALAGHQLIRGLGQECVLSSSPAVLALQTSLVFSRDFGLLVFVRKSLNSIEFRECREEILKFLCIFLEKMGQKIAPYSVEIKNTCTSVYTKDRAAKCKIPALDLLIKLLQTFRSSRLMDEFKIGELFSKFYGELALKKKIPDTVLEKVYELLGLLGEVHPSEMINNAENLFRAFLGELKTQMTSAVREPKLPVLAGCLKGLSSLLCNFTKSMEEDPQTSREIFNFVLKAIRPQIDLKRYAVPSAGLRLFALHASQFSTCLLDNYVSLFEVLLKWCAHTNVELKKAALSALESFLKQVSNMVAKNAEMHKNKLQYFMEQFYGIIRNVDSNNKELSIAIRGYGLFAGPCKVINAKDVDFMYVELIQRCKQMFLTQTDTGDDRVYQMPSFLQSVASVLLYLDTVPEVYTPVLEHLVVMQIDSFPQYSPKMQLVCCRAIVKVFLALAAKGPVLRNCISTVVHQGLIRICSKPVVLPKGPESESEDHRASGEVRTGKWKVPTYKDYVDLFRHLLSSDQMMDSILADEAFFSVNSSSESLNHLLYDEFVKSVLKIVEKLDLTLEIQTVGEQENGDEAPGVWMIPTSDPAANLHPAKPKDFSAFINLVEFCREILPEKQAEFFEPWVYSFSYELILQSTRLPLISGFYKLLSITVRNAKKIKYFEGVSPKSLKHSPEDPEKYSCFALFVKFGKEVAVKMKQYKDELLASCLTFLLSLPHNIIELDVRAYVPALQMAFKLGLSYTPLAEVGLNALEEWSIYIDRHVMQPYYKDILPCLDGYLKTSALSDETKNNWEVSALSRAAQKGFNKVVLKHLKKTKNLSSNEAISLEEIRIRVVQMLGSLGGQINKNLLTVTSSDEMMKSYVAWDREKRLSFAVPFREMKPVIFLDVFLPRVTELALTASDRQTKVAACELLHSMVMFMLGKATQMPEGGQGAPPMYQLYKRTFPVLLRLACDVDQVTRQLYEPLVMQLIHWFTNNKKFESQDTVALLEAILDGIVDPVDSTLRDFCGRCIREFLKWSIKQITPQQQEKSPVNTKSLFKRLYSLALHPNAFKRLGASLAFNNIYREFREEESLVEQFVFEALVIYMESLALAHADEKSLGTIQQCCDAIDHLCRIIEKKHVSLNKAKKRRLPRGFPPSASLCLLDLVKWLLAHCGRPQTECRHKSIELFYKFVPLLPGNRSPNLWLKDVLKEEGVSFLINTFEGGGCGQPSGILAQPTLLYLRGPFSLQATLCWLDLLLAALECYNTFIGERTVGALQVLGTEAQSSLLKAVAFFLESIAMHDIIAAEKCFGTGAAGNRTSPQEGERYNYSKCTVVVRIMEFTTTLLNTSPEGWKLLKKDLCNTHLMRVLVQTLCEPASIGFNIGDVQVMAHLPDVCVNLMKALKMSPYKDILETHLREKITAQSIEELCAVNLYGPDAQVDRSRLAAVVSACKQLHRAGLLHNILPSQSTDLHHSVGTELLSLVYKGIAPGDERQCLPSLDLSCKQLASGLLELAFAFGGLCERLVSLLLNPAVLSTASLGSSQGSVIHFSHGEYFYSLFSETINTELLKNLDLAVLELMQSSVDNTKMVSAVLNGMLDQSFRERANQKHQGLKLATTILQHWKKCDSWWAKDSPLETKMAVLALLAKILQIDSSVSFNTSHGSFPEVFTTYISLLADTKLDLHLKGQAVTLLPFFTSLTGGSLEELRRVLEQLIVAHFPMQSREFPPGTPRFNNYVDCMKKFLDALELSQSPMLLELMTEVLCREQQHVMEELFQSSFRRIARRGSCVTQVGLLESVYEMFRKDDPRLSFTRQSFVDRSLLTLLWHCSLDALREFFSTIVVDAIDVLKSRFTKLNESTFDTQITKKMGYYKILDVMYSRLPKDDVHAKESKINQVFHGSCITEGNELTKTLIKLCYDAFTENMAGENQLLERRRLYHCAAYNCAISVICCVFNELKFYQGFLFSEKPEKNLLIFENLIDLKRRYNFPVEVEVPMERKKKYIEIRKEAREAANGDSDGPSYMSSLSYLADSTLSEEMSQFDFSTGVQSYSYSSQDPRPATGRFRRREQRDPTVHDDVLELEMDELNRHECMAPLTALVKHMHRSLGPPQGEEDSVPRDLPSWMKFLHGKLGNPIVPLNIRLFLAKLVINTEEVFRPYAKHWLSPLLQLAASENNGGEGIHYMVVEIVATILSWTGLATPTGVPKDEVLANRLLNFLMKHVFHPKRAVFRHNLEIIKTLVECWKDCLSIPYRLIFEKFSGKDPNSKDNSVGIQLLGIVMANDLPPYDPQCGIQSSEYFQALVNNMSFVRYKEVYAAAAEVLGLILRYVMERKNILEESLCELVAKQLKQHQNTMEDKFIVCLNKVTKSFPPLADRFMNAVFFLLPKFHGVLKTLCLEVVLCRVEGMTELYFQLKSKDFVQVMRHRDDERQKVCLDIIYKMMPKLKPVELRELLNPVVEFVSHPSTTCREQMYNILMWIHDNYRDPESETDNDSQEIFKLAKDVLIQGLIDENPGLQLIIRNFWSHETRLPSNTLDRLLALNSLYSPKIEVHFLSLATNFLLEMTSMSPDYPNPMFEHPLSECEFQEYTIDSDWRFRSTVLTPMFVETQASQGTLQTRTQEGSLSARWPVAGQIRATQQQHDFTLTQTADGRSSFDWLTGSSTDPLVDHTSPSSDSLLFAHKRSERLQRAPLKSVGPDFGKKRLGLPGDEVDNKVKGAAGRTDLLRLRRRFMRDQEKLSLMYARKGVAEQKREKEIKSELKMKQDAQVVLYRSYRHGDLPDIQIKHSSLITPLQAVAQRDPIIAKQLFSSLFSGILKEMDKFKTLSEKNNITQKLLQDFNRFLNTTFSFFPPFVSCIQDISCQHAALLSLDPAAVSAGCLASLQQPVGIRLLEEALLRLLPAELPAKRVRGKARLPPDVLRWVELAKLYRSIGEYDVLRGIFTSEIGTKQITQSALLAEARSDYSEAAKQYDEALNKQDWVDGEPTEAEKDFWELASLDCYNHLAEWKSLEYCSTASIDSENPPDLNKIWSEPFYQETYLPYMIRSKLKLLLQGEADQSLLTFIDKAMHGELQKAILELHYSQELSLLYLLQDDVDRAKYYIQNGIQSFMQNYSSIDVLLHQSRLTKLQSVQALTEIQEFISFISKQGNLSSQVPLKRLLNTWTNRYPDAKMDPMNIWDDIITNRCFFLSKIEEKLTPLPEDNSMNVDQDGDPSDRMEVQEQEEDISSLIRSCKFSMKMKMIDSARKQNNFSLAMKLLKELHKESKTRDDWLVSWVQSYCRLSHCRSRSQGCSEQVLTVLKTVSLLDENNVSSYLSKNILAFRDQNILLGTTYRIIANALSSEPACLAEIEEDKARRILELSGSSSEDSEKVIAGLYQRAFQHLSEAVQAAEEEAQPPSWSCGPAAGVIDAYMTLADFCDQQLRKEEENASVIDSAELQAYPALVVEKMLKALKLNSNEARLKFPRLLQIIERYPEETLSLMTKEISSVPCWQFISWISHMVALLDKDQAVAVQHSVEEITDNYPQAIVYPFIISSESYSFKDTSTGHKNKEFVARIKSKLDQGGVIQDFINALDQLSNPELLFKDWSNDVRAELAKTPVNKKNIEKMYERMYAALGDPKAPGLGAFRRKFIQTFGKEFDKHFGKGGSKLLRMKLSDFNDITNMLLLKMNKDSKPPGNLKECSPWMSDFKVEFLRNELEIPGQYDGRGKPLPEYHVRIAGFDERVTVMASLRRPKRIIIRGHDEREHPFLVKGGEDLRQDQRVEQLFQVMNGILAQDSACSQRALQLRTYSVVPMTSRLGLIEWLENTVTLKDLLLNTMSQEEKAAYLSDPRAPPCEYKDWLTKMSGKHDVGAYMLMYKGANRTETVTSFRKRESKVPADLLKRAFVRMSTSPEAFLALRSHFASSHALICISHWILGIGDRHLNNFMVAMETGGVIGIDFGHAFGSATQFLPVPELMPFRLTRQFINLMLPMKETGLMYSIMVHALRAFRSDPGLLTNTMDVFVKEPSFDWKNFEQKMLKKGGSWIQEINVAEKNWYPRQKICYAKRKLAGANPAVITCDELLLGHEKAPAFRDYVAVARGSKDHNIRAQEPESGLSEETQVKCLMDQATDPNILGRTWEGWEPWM
Experiment [6] addresses 5'-AMP-activated protein kinase catalytic subunit alpha-2 (Homo sapiens) (UniProt P54646). The experiment can be described thus: Selectivity interaction (ActivX KiNativ screen (kinase selectivity in THP-1 cell lysates)) EUB0000639a PRKAA2. It counts as subcellular. To be noted: lysate, at 0.2 µM.
The target of experiment [7] is Tyrosine-protein kinase HCK (Homo sapiens) (UniProt P08631). The experiment can be described thus: Selectivity interaction (KinomeScan (DiscoverX)) EUB0000695a HCK. To be noted: at 100 nM.
For experiment [8], the target named is Mitogen-activated protein kinase kinase kinase kinase 1 (Homo sapiens) (UniProt Q92918). The experiment can be described thus: Selectivity interaction (KinomeScan (DiscoverX)) EUB0000618a MAP4K1. To be noted: at 10 µM.
Experiment [9] concerns the target T3, Serine/threonine-protein kinase ULK2 (Homo sapiens) (UniProt Q8IYT8).
T3 sequence (whole entry): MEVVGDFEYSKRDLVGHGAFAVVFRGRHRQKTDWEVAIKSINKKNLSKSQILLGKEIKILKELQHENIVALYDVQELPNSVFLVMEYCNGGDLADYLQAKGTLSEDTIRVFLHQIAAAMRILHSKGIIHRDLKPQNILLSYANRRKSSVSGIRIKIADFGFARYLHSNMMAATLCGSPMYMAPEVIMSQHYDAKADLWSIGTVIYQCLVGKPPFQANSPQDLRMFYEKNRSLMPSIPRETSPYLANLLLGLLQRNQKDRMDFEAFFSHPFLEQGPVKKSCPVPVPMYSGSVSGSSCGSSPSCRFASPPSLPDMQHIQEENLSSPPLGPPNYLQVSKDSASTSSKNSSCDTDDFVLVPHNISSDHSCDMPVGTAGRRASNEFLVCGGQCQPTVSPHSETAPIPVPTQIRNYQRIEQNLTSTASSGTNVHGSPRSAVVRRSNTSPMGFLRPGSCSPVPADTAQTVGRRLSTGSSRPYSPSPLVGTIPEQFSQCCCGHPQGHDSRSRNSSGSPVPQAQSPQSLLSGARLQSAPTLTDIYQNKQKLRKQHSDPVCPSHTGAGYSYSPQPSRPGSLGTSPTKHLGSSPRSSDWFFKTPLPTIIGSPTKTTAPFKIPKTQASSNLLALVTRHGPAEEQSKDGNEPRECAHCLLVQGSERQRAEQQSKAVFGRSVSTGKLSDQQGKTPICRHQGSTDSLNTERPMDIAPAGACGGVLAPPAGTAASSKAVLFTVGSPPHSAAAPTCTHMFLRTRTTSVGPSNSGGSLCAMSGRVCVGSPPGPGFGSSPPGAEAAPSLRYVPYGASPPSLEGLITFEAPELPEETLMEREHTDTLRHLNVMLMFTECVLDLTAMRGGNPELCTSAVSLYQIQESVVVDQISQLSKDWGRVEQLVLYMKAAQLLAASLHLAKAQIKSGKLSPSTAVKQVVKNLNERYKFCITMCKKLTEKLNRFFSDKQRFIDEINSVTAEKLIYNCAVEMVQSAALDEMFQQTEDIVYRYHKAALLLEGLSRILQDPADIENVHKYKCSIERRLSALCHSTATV
The experiment can be described thus: Selectivity interaction (KinomeScan (DiscoverX)) EUB0000618a ULK2. To be noted: at 10 µM.

Histamine H2 receptor (Homo sapiens), sequence (P25021 whole entry): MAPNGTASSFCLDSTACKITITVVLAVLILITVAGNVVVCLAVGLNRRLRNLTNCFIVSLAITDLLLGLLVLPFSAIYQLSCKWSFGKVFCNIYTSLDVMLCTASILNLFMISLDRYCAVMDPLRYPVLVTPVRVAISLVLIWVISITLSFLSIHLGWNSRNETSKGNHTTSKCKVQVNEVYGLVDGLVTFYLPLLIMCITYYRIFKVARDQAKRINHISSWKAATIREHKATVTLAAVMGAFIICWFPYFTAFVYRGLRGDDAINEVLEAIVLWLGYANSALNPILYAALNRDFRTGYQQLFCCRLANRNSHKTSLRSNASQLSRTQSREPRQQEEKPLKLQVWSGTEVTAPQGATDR

For `CN(C)C/C=C/C(=O)Nc1ccc(C(=O)N2CCCC(Nc3ncc(Cl)c(-c4c[nH]c5ccccc45)n3)C2)cc1` (centres undefined), the % of control in [1] was 58%.
Regarding `Cc1cc(C)cc([C@@H]2c3cc(C)ccc3NC(=O)CN2C(=O)c2ccc(Br)s2)c1`, the % of inhibition in [2] was -18%.
Take `Cc1cc([C@@H](C)Nc2ccccc2C(=O)O)c2nc(N3CCOCC3)cc(=O)n2c1` [AZD-6482]: the % of control in [3] turned out to be 87%.
Compound `CC(C)(O)[C@H](F)CN1Cc2cc(NC(=O)c3cnn4cccnc34)c(N3CCOCC3)cc2C1=O` gave a dTM in experiment [4] of 0.1 K.
On to `CC[C@@H]1[C@H](F)C(=O)N[C@@H]1COc1nccc2cc(C(N)=O)c(OC)cc12` [ZIMLOVISERTIB], for which the % of inhibition in experiment [5] was 7.87%; in experiment [6] it was -4.3%.
In [7], `Cc1cc(F)c(C(=O)Nc2cccc(-c3nncn3C(C)C)n2)cc1-n1cnc(C2CC2)c1` yielded a % of control of 100%.
For the compound `O[C@H]1CC[C@H](Nc2ncc3nc(Nc4c(F)cc(F)cc4F)n([C@H]4CCOC4)c3n2)CC1`, the % of control in experiment [8] came to 83%; in [9], 89%.

Values taken from ChEMBL document CHEMBL5465560, “Selectivity Literature for EUbOPEN Chemogenomic Library” (2024).
